# In patent US20130131161A1, “METHODS AND COMPOSITIONS FOR CARDIOVASCULAR DISEASES AND CONDITIONS” (priority 2009, published 2013):
# Values joined by “and” are separate entries in the source; they are usually repeats but may differ in a detail not shown here. Equal entries are not always repeated.
# Tested on: Human umbilical vein endothelial cells (HUVECs)
# Test: eNOS activity analysis: NO, ONOO− and NO/ONOO− release from HUVECs of 50 genotyped donors in response to LA-419 (Example 2)
# Assay type: cell-based
# Procedure: Concurrent measurements of NO and ONOO^− were carried out with tandem electrochemical nanosensors combined into one working unit with a total diameter of 200-500 nm (FIG. 1). Their design was based on previously developed and well-characterized chemically modified carbon-fiber technology (Malinski and Taha, 1992; Lvovich and Scheeline, 1997). Each of the nanosensors was made by depositing a sensing material on the tip of a carbon fiber (length 4-5 μm, diameter 0.2-0.5 μm). The fibers were sealed with nonconductive epoxy and electrically connected to copper wires with conductive silver epoxy. A conductive film of polymeric nickel (II) tetrakis(3-methoxy-4-hydroxyphenyl)porphyrin for the NO-sensor and polymeric film of Mn (III) [2.2]paracyclophanylporphyrin was used for the ONOO^−-sensor.
# A module of NO/ONOO^− nanosensors (diameter 1-2 μm) with a platinum wire (0.1 mm) counter electrode and saturated calomel reference electrode (SCE) were applied. Differential pulse voltammetry (DPV) and amperometry were performed with a computer-based Gamry VFP600 multichannel potentiostat. DPV was used to measure the basal NO and ONOO^− concentrations, and amperometry was used to measure changes in NO and ONOO^− concentrations from its basal level with time. The DPV current at the peak potential characteristic for NO oxidation (0.65 V) and ONOO^− reduction (−0.45 V) was directly proportional to the local concentrations of these compounds in the immediate vicinity of the sensor. Linear calibration curves (current vs. concentration) were constructed for each sensor from 10 nM to 3 μM before and after measurements with aliquots of NO and ONOO^− standard solutions, respectively. The detection limit of the sensors was 1.0 nM.
# The quantification of each analyte (concentration in nM) was performed using a maximum current from amperograms and standard calibration curves. A reproducibility of measurements with nanosensors is relatively high (between 5-12%). […] The sensors were slowly raised 5±2 μm from the surface of a single endothelial cell. The eNOS agonist, calcium ionophore A23187 (CaI) as well as the different drugs were then added to the surrounding media at the cell surface with a nanoinjector that was also positioned by a computer controlled-micromanipulator.
# This example describes the genotype-specific response of the three major eNOS variants to 1 μM and 5 μM concentrations of LA-419. The three major genetic polymorphisms studied were the Glu298Asp variant (E298D or 894G→T) in exon 7 of […], the −786T→C variant in the promoter region, and the intron 4 polymorphism (VNTR). All of these variants have possible effects on the cardiovascular system and endothelial dysfunction. For this study, human umbilical vein endothelial cells (HUVECs) from 50 donors between 18 and 32 years of age were used.
# For the analysis several analysis techniques were employed. First, the effect of genotype on NO and ONOO^− release was explored within the different concentrations of LA-419 (control, 1 μM, 5 μM), calculated as the average peak release (nmols/L) of NO, ONOO^−, and NO/ONOO^−. The effect of genotype on the net increase in NO, ONOO^−, and NO/ONOO^− for LA-419 (1 μM and 5 μM) as compared to control was also measured. In addition, an analysis was done on the effect of genotype on the % change in NO, ONOO^−, and NO/ONOO^− production for LA-419 (1 μM and 5 μM), calculated as:
# % Change=[(avg. LA-419−avg. control)/(avg. control)]*100
# Finally, an evaluation was undertaken concerning the effect of genotype on the production of NO, ONOO^−, and NO/ONOO^− as the fold difference of control for LA-419 (1 μM and 5 μM), calculated as:
# Fold Difference=(avg. LA-419)/(avg. control)
# Within each calculation technique the results were compared for statistical significance using a non-parametric ANOVA Kruskal-Wallace test or a non-parametric Mann-Whitney U test. Statistical significance was set at a p-value <0.05 in a two-tailed distribution. […]
# [1] = (LA-419 1 μM)/(control), T-786C T/C & C/C, n=27
# [2] = (LA-419 1 μM)/(control), T-786C T/C, n=23
# [3] = (LA-419 1 μM)/(control), T-786C T/T & T/C, n=45
# [4] = (LA-419 1 μM)/(control), T-786C T/T, n=22
# [5] = (LA-419 5 μM)/(control), Combination of all G894T + T-786C genotypes but G/G + T/T, n=31
# [6] = (LA-419 5 μM)/(control), Combination of all G894T + T-786C genotypes but T/T + C/C, n=46
# [7] = (LA-419 5 μM)/(control), G894T + T-786C G/G + T/C, n=8
# [8] = (LA-419 5 μM)/(control), G894T + T-786C G/G + T/T, n=18
# [9] = (LA-419 5 μM)/(control), G894T + T-786C G/T + C/C, n=1
# [10] = (LA-419 5 μM)/(control), G894T + T-786C G/T + T/C, n=13
# [11] = (LA-419 5 μM)/(control), G894T + T-786C G/T + T/T, n=4
# [12] = (LA-419 5 μM)/(control), G894T + T-786C T/T + C/C, n=1
# [13] = (LA-419 5 μM)/(control), G894T + T-786C T/T + C/C, n=3
# [14] = (LA-419 5 μM)/(control), G894T + T-786C T/T + T/C, n=2
# [15] = (LA-419 5 μM)/(control), G894T G/G & G/T, n=44
# [16] = (LA-419 5 μM)/(control), G894T G/G, n=26
# [17] = (LA-419 5 μM)/(control), G894T G/T & T/T, n=23
# [18] = (LA-419 5 μM)/(control), G894T G/T, n=18
# [19] = (LA-419 5 μM)/(control), G894T T/T, n=5
# [20] = (LA-419 5 μM)/(control), Intron 4 a/a, n=1
# [21] = (LA-419 5 μM)/(control), Intron 4 a/a, n=3
# [22] = (LA-419 5 μM)/(control), Intron 4 b/a, a/a, c/c, n=14
# [23] = (LA-419 5 μM)/(control), Intron 4 b/a, n=10
# [24] = (LA-419 5 μM)/(control), Intron 4 b/b, b/a, c/c, n=42
# [25] = (LA-419 5 μM)/(control), Intron 4 b/b, n=31
# [26] = (LA-419 5 μM)/(control), Intron 4 c/c, n=1
# [27] = (LA-419 5 μM)/(control), T-786C C/C, n=1
structure (smiles),measurement,setting,value
"CC(=O)SC1COC2C(O[N+](=O)[O-])COC12 (stereo not drawn) [LA-419, S-(6-Nitro-oxi-hexahydro-furo[3,2-b]furan-3-1-il)thioacetate]",Fold difference ONOO− (mean ± sd),"(LA-419 1 μM)/(control), T-786C C/C, n=4",1.11 (0.44)
same,Fold difference NO (mean ± sd),[1],1.15 (0.28)
same,Fold difference NO/ONOO− (mean ± sd),[1],1.45 (0.75)
same,Fold difference ONOO− (mean ± sd),[1],0.91 (0.31)
same,Fold difference NO (mean ± sd),[2],1.18 (0.30)
same,Fold difference NO/ONOO− (mean ± sd),[2],1.53 (0.78)
same,Fold difference ONOO− (mean ± sd),[2],0.88 (0.28)
same,Fold difference NO (mean ± sd),[3],1.14 (0.25)
same,Fold difference NO/ONOO− (mean ± sd),[3],1.39 (0.67)
same,Fold difference ONOO− (mean ± sd),[3],0.91 (0.25)
same,Fold difference NO (mean ± sd),[4],1.09 (0.18)
same,Fold difference NO/ONOO− (mean ± sd),[4],1.25 (0.52)
same,Fold difference ONOO− (mean ± sd),[4],0.95 (0.22)
same,Fold difference NO (mean ± sd),[5],1.13 (0.06)
same,Fold difference NO/ONOO− (mean ± sd),[5],1.40 (0.14)
same,Fold difference ONOO− (mean ± sd),[5],0.81 (0.07)
same,Fold difference NO (mean ± sd),[6],1.14 (0.06)
same,Fold difference NO/ONOO− (mean ± sd),[6],1.44 (0.16)
same,Fold difference ONOO− (mean ± sd),[6],0.81 (0.07)
same,Fold difference NO (mean ± sd),[7],1.14 (0.07)
same,Fold difference NO/ONOO− (mean ± sd),[7],1.44 (0.18)
same,Fold difference ONOO− (mean ± sd),[7],0.80 (0.07)
same,Fold difference NO (mean ± sd),[8],1.17 (0.06)
same,Fold difference NO/ONOO− (mean ± sd),[8],1.50 (0.18)
same,Fold difference ONOO− (mean ± sd),[8],0.79 (0.08) and 0.79 (0.06)
same,Fold difference NO (mean ± sd),[9],1.12 (0)
same,Fold difference NO/ONOO− (mean ± sd),[9],1.32 (0)
same,Fold difference ONOO− (mean ± sd),[9],0.85 (0)
same,Fold difference NO (mean ± sd),[10],1.13 (0.07)
same,Fold difference NO/ONOO− (mean ± sd),[10],1.37 (0.11)
same,Fold difference ONOO− (mean ± sd),[10],0.83 (0.04)
same,Fold difference NO (mean ± sd),[11],1.14 (0.05)
same,Fold difference NO/ONOO− (mean ± sd),[11],1.47 (0.19)
same,Fold difference ONOO− (mean ± sd),[11],0.79 (0.12)
same,Fold difference NO (mean ± sd),[12],1.08 (0)
same,Fold difference NO/ONOO− (mean ± sd),[12],1.59 (0)
same,Fold difference ONOO− (mean ± sd),[12],0.67 (0)
same,Fold difference NO (mean ± sd),[13],1.12 (0.07)
same,Fold difference NO/ONOO− (mean ± sd),[13],1.46 (0.14)
same,Fold difference ONOO− (mean ± sd),[13],0.77 (0.08)
same,Fold difference NO (mean ± sd),[14],1.12 (0.09)
same,Fold difference NO/ONOO− (mean ± sd),[14],1.29 (0.01)
same,Fold difference ONOO− (mean ± sd),[14],0.87 (0.06)
same,Fold difference NO (mean ± sd),[15],1.15 (0.06)
same,Fold difference NO/ONOO− (mean ± sd),[15],1.44 (0.16)
same,Fold difference ONOO− (mean ± sd),[15],0.80 (0.07)
same,Fold difference NO (mean ± sd),[16],1.16 (0.06)
same,Fold difference NO/ONOO− (mean ± sd),[16],1.48 (0.18)
same,Fold difference ONOO− (mean ± sd),[16],0.79 (0.07)
same,Fold difference NO (mean ± sd),[17],1.13 (0.06)
same,Fold difference NO/ONOO− (mean ± sd),[17],1.39 (0.13)
same,Fold difference ONOO− (mean ± sd),[17],0.82 (0.07)
same,Fold difference NO (mean ± sd),[18],1.13 (0.06)
same,Fold difference NO/ONOO− (mean ± sd),[18],1.39 (0.13)
same,Fold difference ONOO− (mean ± sd),[18],0.82 (0.06)
same,Fold difference NO (mean ± sd),[19],1.12 (0.07)
same,Fold difference NO/ONOO− (mean ± sd),[19],1.39 (0.13)
same,Fold difference ONOO− (mean ± sd),[19],0.81 (0.08)
same,Fold difference NO (mean ± sd),[20],1.17 (0)
same,Fold difference NO/ONOO− (mean ± sd),[20],1.39 (0)
same,Fold difference ONOO− (mean ± sd),[20],0.85 (0)
same,Fold difference NO (mean ± sd),[21],1.14 (0.04)
same,Fold difference NO/ONOO− (mean ± sd),[21],1.37 (0.04)
same,Fold difference ONOO− (mean ± sd),[21],0.83 (0.03)
same,Fold difference NO (mean ± sd),[22],1.16 (0.06)
same,Fold difference NO/ONOO− (mean ± sd),[22],1.44 (0.13)
same,Fold difference ONOO− (mean ± sd),[22],0.81 (0.05)
same,Fold difference NO (mean ± sd),[23],1.17 (0.07)
same,Fold difference NO/ONOO− (mean ± sd),[23],1.46 (0.14)
same,Fold difference ONOO− (mean ± sd),[23],0.80 (0.06)
same,Fold difference NO (mean ± sd),[24],1.14 (0.07)
same,Fold difference NO/ONOO− (mean ± sd),[24],1.43 (0.17)
same,Fold difference ONOO− (mean ± sd),[24],0.81 (0.07)
same,Fold difference NO (mean ± sd),[25],1.14 (0.07)
same,Fold difference NO/ONOO− (mean ± sd),[25],1.42 (0.18)
same,Fold difference ONOO− (mean ± sd),[25],0.81 (0.08)
same,Fold difference NO (mean ± sd),[26],1.17 (0)
same,Fold difference NO/ONOO− (mean ± sd),[26],1.53 (0)
same,Fold difference ONOO− (mean ± sd),[26],0.77 (0)
same,Fold difference NO (mean ± sd),[27],1.08 (0)
same,Fold difference NO/ONOO− (mean ± sd),[27],1.59 (0)
same,Fold difference ONOO− (mean ± sd),[27],0.67 (0)
